Laboratory results: patent US10053435B2, “Furoxan compound, and manufacturing method for same” (NATIONAL UNIVERSITY CORPORATION KOBE UNIVERSITY, priority 2015, dated 2018)

Test: Nitric oxide-releasing ability (Griess reagent, with L-cysteine in phosphate buffer)
Details: for Nitric oxide-releasing rate: 0.1 mM furoxan compound, 5 mM L-cysteine, 50 mM phosphate buffer pH 7.4, 37° C., 1 hour, one molecule of furoxan taken to release one molecule of nitric oxide; for nitric oxide-releasing ability (in words): conclusion from Table 1; for 3 - X/4 - X (NO-releasing rate of 3-halofuroxan/NO-releasing rate of 4-halofuroxan): ratio of the rates of the 3-halo and 4-halo isomers, same conditions as the releasing rate
Protocol: The ability to release nitric oxide on each of (4-fluoro-3-(4-methylphenyl)furoxan, 3-fluoro-4-(4-methylphenyl)furoxan, 4-chloro-3-(4-methylphenyl)furoxan, and 3-chloro-4-(4-methylphenyl)furoxan was evaluated by the following method.
Each furoxan compound and L-cysteine were dissolved in 50 mM phosphate buffer (pH 7.4) to have a concentration of 0.1 mM and 5 mM, respectively, thereby to prepare a solution with a total volume of 6 mL. After stirring the solution at 37° C. for 1 hour, 3 mL of the solution was added to a light absorption cell and 250 μL of Griess reagent was added. After being left to stand at room temperature for 10 minutes, the absorbance was measured. The nitric oxide-releasing rate was obtained from a calibration curve prepared in advance using a sodium nitrite solution.

| SMILES | Nitric oxide-releasing rate [%] | nitric oxide-releasing rate compared to that of the 3-chlorofuroxan compound (3-fluoro versus 3-chloro compound, same conditions) | nitric oxide-releasing ability (in words) | 3 - X/4 - X (NO-releasing rate of 3-halofuroxan/NO-releasing rate of 4-halofuroxan) [times] |
| --- | --- | --- | --- | --- |
| Cc1ccc(-c2no[n+]([O-])c2Cl)cc1 [3-Chloro compound, 3-chloro-4-(4-methylphenyl)furoxan, reference compound] | 16.7 | – | – | – |
| Cc1ccc(-c2no[n+]([O-])c2F)cc1 [3-Fluoro compound, 3-fluoro-4-(4-methylphenyl)furoxan] | 36.8 | twice or more | extremely high nitric oxide-releasing ability | – |
| Cc1ccc(-c2c(Cl)no[n+]2[O-])cc1 [4-Chloro compound, 4-chloro-3-(4-methylphenyl)furoxan, reference compound] | 4.2 | – | – | 4.0 |
| Cc1ccc(-c2c(F)no[n+]2[O-])cc1 [4-Fluoro compound, 4-fluoro-3-(4-methylphenyl)furoxan] | 2.5 | – | almost no nitric oxide-releasing ability | 14.7 |
